Experimental data taken from ChEMBL document CHEMBL5390272, “Discovery of a potent and selective human AC2 inhibitor based on 7-deazapurine analogues of adefovir” (Bioorg Med Chem, 2023).

Assays:
[1] = target: Adenylate cyclase type 2 (Homo sapiens, UniProt Q08462); experiment: Inhibition of human adenylate cyclase 2 expressed in ACdelta 3/6 knockout HEK293 cells assessed as cyclic AMP accumulation incubated for 30 min followed by FSK stimulation by HTR-FRET assay; type: cell-based
[2] = system: CCRF-CEM; experiment: Cytotoxicity against human CCRF-CEM cells by CellTiter-Glo 2.0 assay; type: functional, cell-based
[3] = system: HEK293; experiment: Cytotoxicity against AC1 expressed HEK293 cells by CellTiter-Glo 2.0 assay relative to control; type: toxicity, cell-based; design: concentration or dose not given beside the values; conditions: human
[4] = Inhibition of Bordetella pertussis Adenylate cyclase toxin in mouse J774.A1 cells preincubated for 5 hrs followed by ACT addition and measured after 30 mins by CatchPointcAMP immunoassay method; type: cell-based
[5] = Cytotoxicity against mouse J774.A1 cells assessed as cell viability at 10 uM incubated for 5 hrs by Cell Titer-Glo Luminescent Cell Viability assay relative to control; type: toxicity, cell-based; conditions: read-out: Activity
[6] = system: HepG2; experiment: Cytotoxicity against human HepG2 cells by CellTiter-Glo 2.0 assay; type: functional, cell-based
[7] = system: NHDF; experiment: Cytotoxicity against human NHDF cells by CellTiter-Glo 2.0 assay; type: toxicity, cell-based
[8] = system: HeLa S3; experiment: Cytotoxicity against human HeLa S3 cells by CellTiter-Glo 2.0 assay; type: functional, cell-based
[9] = system: HL-60; experiment: Cytotoxicity against human HL-60 cells by CellTiter-Glo 2.0 assay; type: functional, cell-based
[10] = target: D(1A) dopamine receptor (Homo sapiens, UniProt P21728); experiment: Inhibition of human D1 receptor expressed in HEK293 cells assessed as cyclic AMP accumulation incubated for 1 hr in presence of dopamine by HTR-FRET assay; type: functional, cell-based
D(1A) dopamine receptor, sequence (P21728 whole entry): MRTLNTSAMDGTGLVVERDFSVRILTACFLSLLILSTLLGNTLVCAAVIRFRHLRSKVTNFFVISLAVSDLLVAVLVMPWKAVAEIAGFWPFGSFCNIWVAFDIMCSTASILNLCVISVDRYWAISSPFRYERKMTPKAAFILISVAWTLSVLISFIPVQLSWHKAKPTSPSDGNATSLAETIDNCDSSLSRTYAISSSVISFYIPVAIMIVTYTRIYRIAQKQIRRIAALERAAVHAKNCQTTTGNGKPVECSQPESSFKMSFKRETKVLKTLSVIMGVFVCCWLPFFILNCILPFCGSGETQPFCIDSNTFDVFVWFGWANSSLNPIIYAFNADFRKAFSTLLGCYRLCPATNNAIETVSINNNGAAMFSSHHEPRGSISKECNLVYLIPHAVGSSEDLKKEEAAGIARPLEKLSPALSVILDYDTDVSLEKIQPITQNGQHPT

Adenylate cyclase type 2, sequence (Q08462 whole entry): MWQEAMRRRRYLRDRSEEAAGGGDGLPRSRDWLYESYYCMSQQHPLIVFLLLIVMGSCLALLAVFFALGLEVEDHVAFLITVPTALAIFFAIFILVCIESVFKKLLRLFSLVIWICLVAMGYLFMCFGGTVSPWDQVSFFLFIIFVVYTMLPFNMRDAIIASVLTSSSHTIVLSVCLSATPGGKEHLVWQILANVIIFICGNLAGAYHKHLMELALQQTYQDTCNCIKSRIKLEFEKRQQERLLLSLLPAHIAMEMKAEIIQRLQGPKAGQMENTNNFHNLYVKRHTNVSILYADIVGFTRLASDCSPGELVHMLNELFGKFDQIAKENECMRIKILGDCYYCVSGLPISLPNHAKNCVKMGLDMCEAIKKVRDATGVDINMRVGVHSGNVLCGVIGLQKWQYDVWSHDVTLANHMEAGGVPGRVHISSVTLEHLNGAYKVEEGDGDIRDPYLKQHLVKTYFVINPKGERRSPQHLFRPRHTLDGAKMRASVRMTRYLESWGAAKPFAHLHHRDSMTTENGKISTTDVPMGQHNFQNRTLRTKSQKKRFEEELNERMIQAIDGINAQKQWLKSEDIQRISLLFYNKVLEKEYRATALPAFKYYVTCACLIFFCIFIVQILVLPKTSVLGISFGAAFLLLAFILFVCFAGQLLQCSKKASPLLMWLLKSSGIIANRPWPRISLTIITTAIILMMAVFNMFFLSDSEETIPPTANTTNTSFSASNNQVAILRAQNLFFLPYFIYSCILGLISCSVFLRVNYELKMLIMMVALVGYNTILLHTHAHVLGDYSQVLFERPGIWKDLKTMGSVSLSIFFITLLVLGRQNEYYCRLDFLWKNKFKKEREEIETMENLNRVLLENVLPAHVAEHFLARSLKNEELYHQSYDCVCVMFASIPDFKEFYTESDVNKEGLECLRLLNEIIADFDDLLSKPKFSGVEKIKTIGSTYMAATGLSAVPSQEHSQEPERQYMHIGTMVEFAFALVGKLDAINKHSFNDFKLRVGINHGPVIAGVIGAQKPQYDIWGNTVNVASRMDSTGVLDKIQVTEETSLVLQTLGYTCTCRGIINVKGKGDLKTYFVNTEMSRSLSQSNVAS

CC(C)OC(=O)[C@H](Cc1ccccc1)NP(=O)(COCCn1cc(-c2cccc(-c3noc(=O)[nH]3)c2)c2c(N)ncnc21)N[C@@H](Cc1ccccc1)C(=O)OC(C)C
IC50 [1]: 4.45 µM
IC50 [2]: > 10 µM
Activity [3]: 89%
IC50 [4]: > 10 µM
viability at 5 h, 10 µM [5]: 114%
IC50 [6]: > 10 µM
IC50 [7]: > 10 µM
IC50 [8]: > 10 µM
IC50 [9]: 10 µM
IC50 [10]: > 10 µM
